Results as given in US8298781B2, “Compositions and methods for characterizing and regulating olfactory sensation” (Duke University, priority 2007, dated 2012).

Test system: human subjects
Experiment: Human olfactory psychophysics: valence rating by OR7D4 genotype
Assay type: in vivo
Settings: for valence rating, OR7D4 RT/WM vs RT/RT subjects: 7-point scale, two concentrations pooled; for valence rating, RT/S84N subjects vs RT/RT controls: N=7 RT/S84N; for valence rating of OR7D4 WM/WM subjects relative to solvent propylene glycol: N=10 WM/WM; for valence rating, RT/P79L subjects vs RT/RT controls: N=30 RT/P79L
Procedure: Human olfactory psychophysics. All human subjects gave informed consent to participate in this study and were tested in a well-ventilated room. Normal human subjects (n=412; 218 female, 194 male; median age 34, age range 19-75) were pre-screened to exclude pregnant women and those with medical conditions causing general impairment of the sense of smell. All subjects completed two replicates of the test separated by at least 4 days. Odors were presented in amber vials as previously described (see, e.g., Keller, A., et al., Nat Neurosci 7, 337-338 (2004); herein incorporated by reference in its entirety) using bar-coded symbols to ensure that subjects were blind to the identity of all odors. The intensity and valence of 66 odors at two concentrations (“high” and “low”) and two solvents was rated using a 7-point scale. Thresholds were calculated using the single staircase method with seven reversals (see, e.g., Doty, R. L., et al., Chem Senses 20, 645-656 (1995); Doty, R. L. & Laing, D. G. in Handbook of Olfaction and Gustation (ed. Doty, R. L.) pp. 203-228 (Marcel Dekker, Inc., New York, 2003); each of which are herein incorporated by reference in their entireties). Threshold tests included both steroids as binary dilutions from […] (binary dilution 6) to 1: 134,217,728 (binary dilution 27). Subjects who could not reliably distinguish a 1:64 dilution of androstenone and androstadienone from solvent were operationally defined as anosmic to these odorous steroids, although it could not be excluded that these subjects could detect higher concentrations of these steroids (see, e.g., Bremner, E. A., et al., Chem Senses 28, 423-432 (2003); herein incorporated by reference in its entirety). Odor profiling used the method established by Dravnieks, et al. (see, e.g., Dravnieks, A., et al., Science 218, 799-801 (1982); herein incorporated by reference in its entirety).
Stimuli for olfactory psychophysics. All odors were presented as one ml of an odor dilution in either propylene glycol or paraffin oil in 20 ml amber glass vials. All of these compounds were used in the intensity and valence rating portion of the smell test.
Olfactory ratings. The intensity and valence of 66 odors were rated at two different concentrations (high and low) and the intensity and valence of the two solvents (paraffin oil and propylene glycol) was rated three times. Prior to these ratings, six stimuli that represented the spectrum of intensity and valence of the stimuli used in the study were presented to allow the subjects to calibrate the usage of the scale. The subjects were unaware that the six first stimuli served that purpose. After the rating of the 66 odors at two concentrations and the rating of the solvents, 15 stimuli that were presented earlier in the experiment were repeated to test for the effect of adaptation and olfactory fatigue on the ratings. The subjects were not aware that the last 15 stimuli served this purpose. These 15 stimuli and the six first stimuli were not included in the analysis presented here. […] The 15 control stimuli and their concentrations were as follows:
In addition there was a button on the screen labeled “I can't smell anything” and a button labeled “Don't Know”. If the “Don't Know” button was pressed, no rating was recorded. If the “I can't smell anything” button was pressed, a 0 was recorded for the intensity rating and no rating was recorded for the valence rating. The other ratings were transformed according to the following scheme:
• Extremely Weak=1 • Very Weak=2 • Slightly Weak=3 • Neither Weak nor Strong=4 • Slightly Strong=5 • Very Strong=6 • Extremely Strong=7 Valence Rating • Extremely Unpleasant=1 • Very Unpleasant=2 • Slightly Unpleasant=3 • Neither Unpleasant nor Pleasant=4 • Slightly Pleasant=5 • Very Pleasant=6 • Extremely Pleasant=7
Averages for the ratings of the different genotypes were calculated. […]

SMILES	valence rating, OR7D4 RT/WM vs RT/RT subjects	valence rating, RT/S84N subjects vs RT/RT controls	valence rating of OR7D4 WM/WM subjects relative to solvent propylene glycol	valence rating, RT/P79L subjects vs RT/RT controls
C[C@@]12C=CC[C@H]1[C@@H]1CCC3=CC(=O)CC[C@]3(C)[C@H]1CC2 [androstadienone, androsta-4,16-dien-3-one]	more pleasant	less pleasant	more unpleasant than the solvent	more pleasant
C[C@]12CCC(=O)C[C@@H]1CC[C@@H]1[C@@H]2CC[C@]2(C)C=CC[C@@H]12 [androstenone, 5α-androst-16-en-3-one]	more pleasant	less pleasant	more unpleasant than the solvent	more pleasant
